Data from patent US20240415825A1, “COMPOUNDS FOR THE TREATMENT OF MALARIA” (FUNDACIÓ INSTITUT DE BIOENGINYERIA DE CATALUNYA, priority 2021, published 2024).
Where two headings read alike, the source gives them in different places.

What was measured:
[1] = In vivo toxicity assay in mice; design: species or system BALB/c mice
Method: BALB/c female and male mice (Janvier Laboratories) were maintained with unlimited access to food and water under standard environmental conditions (20-24° C. and 12/12 h light/dark cycle). […] First, the lowest dose was intravenously injected to one female and one male mice. An oxygen stream of 4% isoflurane was used to anesthetize the mice, which were then maintained during the whole procedure (less than 3 minutes) with 2.5% isoflurane.
After the administration, mice were observed and different parameters related to their behavior (lethargy, motility alterations, seizures, coma, automutilation, aggressiveness, vocalizations, stereotyped movements) and physical conditions (pain, respiratory disturbances, tachycardia or bradycardia, dehydration, hair loss, body weight loss, dermatitis, bad hygiene, pruritus, tearing) were followed. If after 48 h no deleterious effects were observed, the following dose was administered to two other male and female mice.

[2] = test system: P. falciparum 3D7 strain; test: P. falciparum growth inhibition assay (3D7 strain); format: cell-based, Plasmodium falciparum; conditions: for IC50: Plasmodium falciparum, 3D7 strain
Method: After the synchronization process, a new culture at 1.5% parasitemia and 2% hematocrit was established and 150 μL aliquots of it were transferred to 96-well plates.
The required amounts of peptides, antimalarial compounds and dyes were added in each well at different concentrations and in triplicates. A positive growth control of untreated parasites and a negative growth control of parasites treated with a lethal dose of chloroquine (1 μM) were also included.
Parasites were grown for 48 h, a complete replication cycle, in standard culturing conditions (5% O2, 5% CO2, and 90% N2 at 37° C.). After the incubation period, 3 μL of culture from each well were mixed with 197 μL of PBS containing 0.1 μM Syto 11 (Thermo Fisher Scientific Inc), to obtain a final concentration of ca. 1-10×10^6 cells/ml.
Parasitemia was assessed by flow cytometry using a LSRFortessa flow cytometer (BD Biosciences, San Jose, CA, USA) set up with the 4 lasers, 20 parameters standard configuration. The single-cell population was selected on a forward-side scatter scattergram.
Growth inhibition was calculated taking as reference values both the growth rate of the untreated culture and the growth rate of the culture treated with chloroquine.

[3] = test system: P. falciparum W2 strain; test: Growth inhibition, chloroquine-resistant W2 strain; format: cell-based; conditions: Plasmodium falciparum
Source text: P. falciparum parasites of chloroquine-sensitive (3D7 strain) and chloroquine- and artemisinin-resistant strains were processed as described in section 1.1.3 of EXAMPLE 1.
In particular, the P. falciparum resistant strains were the following: (1) strain W2 MRA-157 (BEI Resources, managed by ATCC) which is chloroquine-resistant; (2) strains 3D7 harboring the K13 mutations associated to artemisinin resistance, either M5791 or R561H (both provided by Dr. David A. Fidock and referenced in Stokes, B. H. et al., 2021); (3) Cam 3.11 strain which is chloroquine and sulfadoxine/pyrimethamine-resistant; and (4) Cam 3.11 strain modified to carry K13 mutations associated to artemisinin-resistant strains, either R561H or R539T, therefore being multiresistant strains. All Cam 3.11 strains (3) and (4) were provided by Dr. David A. Fidock and are referenced in Straimer, J. et al., 2015 and Stokes, B. H. et al., 2021.
Then, the required amount of AID-X-2020 was added to each well at different concentrations (0.0001, 0.001, 0.01, 1 and 10 μM) and triplicates.

[4] = test system: P. falciparum 3D7 strain; test: Dot blot / Western blot of treated P. falciparum cultures (ubiquitinated proteins, amyloid fibrils); format: cell-based, Plasmodium falciparum
Method: Cultures of the P. falciparum 3D7 strain were sorbitol synchronized in ring stages, and after 24 h were treated for 90 min with AID-X-2020 concentrations ranging from 33 nM to 33 μM. After that time, cultures were spun down and pellets were washed once with ice-cold PBS supplemented with EDTA-free protease inhibitor cocktail (PIC, Roche; 1 PIC tablet/10 mL PBS). For anti-ubiquitin Western blots, PBS was also supplemented with 20 mM N-ethylmaleimide. […] Protein extracts were quantified with the bicinchoninic acid assay (ThermoFisher Scientific), following the manufacturer's instructions. […]
For Western blots, 15 μg of saponin-extracted proteins were incubated for 5 min at 95° C. diluted in Laemmli solution (0.14 M SDS, 0.125 M tris-HCl, pH 6.8, 20% glycerol, 10% 2-mercaptoethanol, 3 mM bromophenol blue) and resolved by SDS-PAGE in 12% bis-tris acrylamide (Bio-Rad) gels run at 80 V until samples entered the resolving gel and at 120 V afterwards. […] After probing with secondary antibodies, for both dot blot and Western blot membranes, four washes with TBS-Tween and one last wash with TBS were done and peroxidase substrate (ECL Prime Western Blotting Detection Reagent, Amersham Life Science, Inc.) was poured on the membrane and chemiluminescent signal was measured in a LAS 4000 reader (ImageQuant) at different exposure times.

[5] = molecular target: T1, Aβ40 (Homo sapiens, UniProt P05067); test: In vitro Aβ40 aggregation (ThT fluorescence, TEM); format: biochemical; conditions: 25 μM Aβ40
T1 construct: Amyloid-β peptide fragment 1-40 (Aβ40); purchased GenScript
T1 sequence (P05067 672-711 limits assumed, species assumed): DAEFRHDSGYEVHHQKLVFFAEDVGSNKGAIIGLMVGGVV
Method: For the in vitro analysis of As peptide fragment 1-40 (Aβ40) aggregation, 1 mg of Aβ40 (GenScript) was dissolved in 500 μL of 1,1,1,3,3,3-hexafluoro-2-propanol (HFIP, Fluka) under vigorous stirring for 1 h and sonicated for 30 min in a sonication bath. Afterwards, the solution was stirred for 1 h and maintained at 4° C. for 30 min. Aliquots were prepared, HFIP was evaporated under a nitrogen stream for a few seconds and the peptide was stored at −20° C. […] The final sample always contained less than 5% DMSO to avoid interference of this solvent on Aβ40 amyloid fibril formation. Finally, ThT treatment was performed as described above.
25 μM ThT was added to each sample and fluorescence was measured by exciting samples at 440 nm and recording the emission from 465 nm to 600 nm. A blank measurement of each sample was done before adding ThT.
A carbon-coated copper grid was deposited on top of a 50-μL drop of each solution for 30 min. Then, the excess liquid was removed with filter paper and the grid was placed on top of a water drop for 30 s and finally negatively stained for 2 min with 20 μL of 2% uranyl acetate. Samples were observed using a JEM 1010 transmission electron microscope (JEOL Ltd., Japan). Images were acquired using a CCD Orius camera (Gatan, Inc., USA).

[6] = test system: P. falciparum cultures; test: Combination assay of AID-X-2020 and artemisinin (isobologram, FIC); format: cell-based, Plasmodium falciparum; conditions: combined with artemisinin in different ratios
Method: For assays of AID-X-2020 and artemisinin, serial dilutions of both compounds were prepared at different concentration ratios (1:0, 0:1, 1:1, 1:2, 2:1, 1:5 and 5:1).
To assess the synergistic effect of AID-X-2020 and artemisinin, IC50 values for each individual compound in the mixtures were calculated as described above and plotted in an isobologram (“x” value=AID-X-2020 IC50 and “y” value=artemisinin IC50). Fractional inhibitory concentration (FIC) values were calculated by dividing the IC50 of one of the compounds in the mixture by the IC50 of the same compound in the 1:0 or 0:1 ratio mixture.

## CCN(CC)c1ccc(/C=C/c2cc[n+](CCCCCCCCCC[n+]3ccc(/C=C/c4ccc(N(CC)CC)cc4)c(C)c3)cc2C)cc1 [AID-X-2020, 1,1′-(decane-1,10-diyl)bis{4-[(E)-4-(diethylamino)styryl]-3-methylpyridin-1-ium} dibromide]
[1]; female mice
  dose at which adverse effects start: 10 mg/kg
[1]; male mice
  dose at which toxicity starts being observed: 17 mg/kg
[2]; P. falciparum cultures
  in vitro IC10: 27 nM
[2]; 48 h, Table 2, read-out: IC50 in 3D7 strain (μM) ± SEM
  IC50: 0.09 ± 0.02 µM
[2]; Example 8, read-out: IC50 in 3D7 strain
  IC50: 0.09 µM
[2]; read-out: IC50 in P. falciparum in vitro cultures
  IC50: 0.09 ± 0.002 µM
[3]
  IC50: 90 ± 1 nM
[4]; 90 nM treatment of P. falciparum cultures, along time
  effect on ubiquitinated proteins: reduction in ubiquitinated proteins
[4]; 90 min exposure, dot blot
  concentration inhibiting amyloid fibril formation: > 3 µM
[5]
  inhibition of the aggregation of Aβ40: strong inhibitor
[6]
  ZFIC values: higher than 1.5
